Measured values: US20220073857A1, “THREE-DIMENSIONAL SUBSTRATE FOR MICROBIAL CULTURES” (POLITECNICO DI MILANO, priority 2018, published 2022)

Legend:
[1] = Mucous barrier model: ability of molecules to cross a barrier (permeable support, “SUBSTRATE” or Mus^3SUB); format: in vitro ADME; settings: interactive barrier, mucin in the “SUBSTRATE” (Mus^3SUB); FIG. 4
Experimental: “SUBSTRATE” and Mus^3SUB with the features referred to in Example 2 were tested for the ability thereof to mimic the mucous barrier.
The charts in FIG. 4 show the ability of said molecules to cross a barrier, where the barrier consists of a permeable support, “SUBSTRATE” or Mus^3SUB.

[2] = cited from earlier work

Structure (SMILES) | transition of the drug across the barrier [1] | pKa [2] | log D7.4 ([2]; pH 7.4)
CC1=C(C(=O)O)N2C(=O)[C@@H](NC(=O)[C@H](N)c3ccccc3)[C@H]2SC1 [Cefalexin] | very quick |  | 
COc1cccc2c1C(=O)c1c(O)c3c(c(O)c1C2=O)C[C@@](O)(C(=O)CO)C[C@@H]3O[C@H]1C[C@H](N)[C@@H](O)[C@H](C)O1 [Epirubicin] | slowed | 8.01 | 0.03
